Activity calls are given as the source filed them.
Key:
Beta-galactosidase = Beta-galactosidase (Escherichia coli, UniProt Q8VNN2); experiment: PubChem AID 485352; format: functional
[1] = molecular target: T1, Type-1 angiotensin II receptor (Homo sapiens, UniProt P30556); experiment: antagonism of angiotensin II type 1 receptor – cell-based, uHTS hits, selectivity assay for APJ receptor antagonist project, dose response (AID 463214); format: functional;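 also: antagonist potency against angiotensin II stimulated AT1 response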
T1 sequence (P30556 whole entry): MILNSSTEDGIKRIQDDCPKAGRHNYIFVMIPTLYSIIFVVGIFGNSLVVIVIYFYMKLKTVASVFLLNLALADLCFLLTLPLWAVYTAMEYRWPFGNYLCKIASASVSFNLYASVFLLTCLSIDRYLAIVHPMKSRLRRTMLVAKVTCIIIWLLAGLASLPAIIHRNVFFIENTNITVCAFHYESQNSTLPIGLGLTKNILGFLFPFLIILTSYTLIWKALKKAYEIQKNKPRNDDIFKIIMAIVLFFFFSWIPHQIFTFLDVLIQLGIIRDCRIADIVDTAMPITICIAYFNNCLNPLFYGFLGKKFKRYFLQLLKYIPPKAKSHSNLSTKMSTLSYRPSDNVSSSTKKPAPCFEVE

[2] = molecular target: T2, Calpain-2 catalytic subunit (Sus scrofa, UniProt P43367); experiment: m-calpain protease blockers, concentration series – biochemical, fluorogenic peptide substrate, dose response (AID 1420); format: functional
T2 sequence (P43367 whole entry): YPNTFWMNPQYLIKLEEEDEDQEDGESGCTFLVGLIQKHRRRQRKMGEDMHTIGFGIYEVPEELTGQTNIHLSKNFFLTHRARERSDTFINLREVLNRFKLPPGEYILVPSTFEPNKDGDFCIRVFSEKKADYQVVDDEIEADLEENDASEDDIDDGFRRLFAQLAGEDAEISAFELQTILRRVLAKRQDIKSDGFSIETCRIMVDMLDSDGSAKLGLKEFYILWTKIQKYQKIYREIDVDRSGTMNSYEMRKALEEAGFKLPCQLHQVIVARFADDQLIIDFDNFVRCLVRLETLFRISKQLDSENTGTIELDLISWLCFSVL

Large T antigen = Large T antigen (Simian virus 40, UniProt P03070); format: functional, Betapolyomavirus macacae;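 also: Confirmatory-stage PubChem screen for compounds that inhibit SV40 T antigen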
[3] = molecular target: Induced myeloid leukemia cell differentiation protein Mcl-1 (Homo sapiens, UniProt Q07820); format: functional
Chain of Induced myeloid leukemia cell differentiation protein Mcl-1 (Q07820 whole entry): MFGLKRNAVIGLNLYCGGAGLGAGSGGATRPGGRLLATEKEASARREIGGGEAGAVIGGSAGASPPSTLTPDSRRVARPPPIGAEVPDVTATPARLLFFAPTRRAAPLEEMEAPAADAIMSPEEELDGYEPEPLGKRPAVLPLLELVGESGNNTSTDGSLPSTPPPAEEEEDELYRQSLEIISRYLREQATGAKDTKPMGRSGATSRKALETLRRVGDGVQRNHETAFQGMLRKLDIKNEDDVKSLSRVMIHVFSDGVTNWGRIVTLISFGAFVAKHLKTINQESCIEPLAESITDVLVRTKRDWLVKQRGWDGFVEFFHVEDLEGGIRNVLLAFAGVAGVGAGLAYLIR

[4] = molecular target: Intestinal-type alkaline phosphatase (Mus musculus, UniProt P24822); experiment: PubChem AID 488785; format: functional
Chain of Intestinal-type alkaline phosphatase (Mus musculus, UniProt P24822) (P24822 whole entry): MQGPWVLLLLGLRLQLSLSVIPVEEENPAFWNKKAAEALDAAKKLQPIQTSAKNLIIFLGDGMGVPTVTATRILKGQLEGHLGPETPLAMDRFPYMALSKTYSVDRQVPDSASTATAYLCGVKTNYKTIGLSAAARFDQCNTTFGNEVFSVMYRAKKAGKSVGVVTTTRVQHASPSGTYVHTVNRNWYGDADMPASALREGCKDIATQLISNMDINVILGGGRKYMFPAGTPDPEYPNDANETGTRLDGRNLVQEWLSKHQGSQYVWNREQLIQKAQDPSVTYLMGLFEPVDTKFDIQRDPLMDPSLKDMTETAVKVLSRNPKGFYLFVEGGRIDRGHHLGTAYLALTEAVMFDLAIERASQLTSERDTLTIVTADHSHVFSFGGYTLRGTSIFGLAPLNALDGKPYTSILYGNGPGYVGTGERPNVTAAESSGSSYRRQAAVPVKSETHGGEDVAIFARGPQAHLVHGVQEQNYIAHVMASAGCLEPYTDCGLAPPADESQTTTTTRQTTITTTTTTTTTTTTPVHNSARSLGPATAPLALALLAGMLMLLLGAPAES

[5] = molecular target: T3, Alkaline phosphatase, tissue-nonspecific isozyme (Homo sapiens, UniProt P05186); experiment: TNAP enzyme inhibition by screening hits, dose response, selectivity assay for mouse IAP inhibitor project, biochemical, human TNAP, uHTS hits (AID 488906); format: functional
T3 sequence (P05186 whole entry): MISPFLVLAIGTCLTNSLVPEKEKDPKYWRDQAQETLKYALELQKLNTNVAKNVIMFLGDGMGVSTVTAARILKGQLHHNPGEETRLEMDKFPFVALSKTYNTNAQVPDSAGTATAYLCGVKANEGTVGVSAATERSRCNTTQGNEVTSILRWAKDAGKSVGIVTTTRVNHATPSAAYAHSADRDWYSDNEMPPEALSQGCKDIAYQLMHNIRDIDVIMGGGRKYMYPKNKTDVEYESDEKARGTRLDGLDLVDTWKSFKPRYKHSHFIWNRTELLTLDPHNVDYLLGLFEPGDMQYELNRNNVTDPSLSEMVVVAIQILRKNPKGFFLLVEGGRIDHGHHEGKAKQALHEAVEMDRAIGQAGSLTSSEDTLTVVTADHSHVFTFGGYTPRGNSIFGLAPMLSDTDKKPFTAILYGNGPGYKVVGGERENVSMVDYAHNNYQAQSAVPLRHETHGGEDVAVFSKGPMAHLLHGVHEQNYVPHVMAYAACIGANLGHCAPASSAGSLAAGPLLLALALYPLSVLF

[6] = molecular target: Intestinal-type alkaline phosphatase (Homo sapiens, UniProt P09923); experiment: inhibition of human intestinal alkaline phosphatase – biochemical, dose response (AID 488876); format: functional
[7] = NIH-3T3 fibroblast cytotoxicity, dose response, cytotoxicity control, cell-based, fluorescence, Alamar Blue, secondary assay (AID 2327); format: functional;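 also: NIH-3T3 mouse fibroblasts cultured with fluconazole at 8 µg/mL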
[8] = fluconazole-exposed Candida albicans growth modulators – fluorescence, retest, confirmation (AID 2467); format: functional, cell-based
[9] = molecular target: T4, Serine/threonine-protein phosphatase (Candida dubliniensis (strain CD36 / CBS 7987 / NCPF 3949 / NRRLY-17841) (Yeast), UniProt B9W6M3); experiment: blockers of CaCl2-induced CDRE-lacZ signaling – S. cerevisiae, luminescence, secondary, dose response (AID 2388); format: functional, cell-based;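 also: yeast reporter cells carrying a calcineurin-responsive lacZ construct stimulated with calcium chloride; luminescent beta-galactosidase reporter signal in whole cells rather than isolated phosphatase activity; potency for inhibition where a drop in reporter signal means calcineurin blockade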
T4 sequence (B9W6M3 whole entry): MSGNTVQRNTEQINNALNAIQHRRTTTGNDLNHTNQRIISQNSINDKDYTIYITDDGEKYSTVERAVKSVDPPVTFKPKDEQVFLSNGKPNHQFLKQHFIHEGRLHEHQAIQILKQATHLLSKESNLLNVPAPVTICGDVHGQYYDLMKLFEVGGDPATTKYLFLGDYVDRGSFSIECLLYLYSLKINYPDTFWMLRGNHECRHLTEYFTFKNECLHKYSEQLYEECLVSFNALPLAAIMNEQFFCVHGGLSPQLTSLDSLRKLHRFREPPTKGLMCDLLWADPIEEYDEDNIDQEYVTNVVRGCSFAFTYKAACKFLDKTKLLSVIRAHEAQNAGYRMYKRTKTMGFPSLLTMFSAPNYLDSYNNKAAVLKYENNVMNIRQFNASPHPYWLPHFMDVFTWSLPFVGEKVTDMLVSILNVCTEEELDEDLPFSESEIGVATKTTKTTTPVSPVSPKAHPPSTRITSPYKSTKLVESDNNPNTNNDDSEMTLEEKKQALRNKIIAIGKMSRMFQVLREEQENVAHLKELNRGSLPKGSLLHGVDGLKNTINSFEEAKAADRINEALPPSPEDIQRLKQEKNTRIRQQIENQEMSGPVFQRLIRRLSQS

[10] = molecular target: T5, Mannose-6-phosphate isomerase (Homo sapiens, UniProt P34949); experiment: MPI inhibition at elevated mannose 6-phosphate – biochemical, fluorescence intensity, high mannose 6-phosphate, primary screen (AID 1220)
T5 sequence (P34949 whole entry): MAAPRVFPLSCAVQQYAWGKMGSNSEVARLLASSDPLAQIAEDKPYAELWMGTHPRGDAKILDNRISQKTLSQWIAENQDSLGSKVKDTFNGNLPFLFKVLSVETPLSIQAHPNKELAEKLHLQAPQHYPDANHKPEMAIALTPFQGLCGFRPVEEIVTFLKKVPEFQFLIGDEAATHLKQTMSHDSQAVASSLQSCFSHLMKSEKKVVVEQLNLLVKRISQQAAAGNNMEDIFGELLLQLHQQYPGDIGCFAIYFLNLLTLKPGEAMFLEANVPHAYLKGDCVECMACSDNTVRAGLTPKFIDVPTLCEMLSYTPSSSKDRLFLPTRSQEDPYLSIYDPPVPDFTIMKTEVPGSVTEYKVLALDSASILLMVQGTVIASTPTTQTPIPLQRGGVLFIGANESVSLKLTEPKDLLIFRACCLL

[11] = molecular target: Heat shock protein HSP 90-alpha (Homo sapiens, UniProt P07900); format: functional, organism-based
[12] = molecular target: T4, Serine/threonine-protein phosphatase; experiment: Fluorescence Cell-Based Secondary Assay to Identify Inhibitors of Calcineurin. [Related pubchem assays (depositor defined):AID1979, AID2007]; format: functional
Genome polyprotein = Genome polyprotein (dengue virus type 2, UniProt P29990); experiment: flavivirus cap methylation enzyme inhibition – biochemical, confirmation dose response, primary screen (AID 588689); format: functional
[13] = molecular target: ATP-dependent molecular chaperone HSP82 (Candida albicans (strain WO-1) (Yeast), UniProt C4YTQ8); experiment: steroid-induced GRE reporter decrease in yeast – S. cerevisiae, luminescence, Hsp90 inhibitor project, dose response (AID 2400); format: functional, cell-based;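 also: beta-galactosidase luminescence from glucocorticoid response element reporter as proxy for Hsp90 function; inhibitor potency where signal loss means Hsp90 inhibition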
Chain of ATP-dependent molecular chaperone HSP82 (C4YTQ8 whole entry): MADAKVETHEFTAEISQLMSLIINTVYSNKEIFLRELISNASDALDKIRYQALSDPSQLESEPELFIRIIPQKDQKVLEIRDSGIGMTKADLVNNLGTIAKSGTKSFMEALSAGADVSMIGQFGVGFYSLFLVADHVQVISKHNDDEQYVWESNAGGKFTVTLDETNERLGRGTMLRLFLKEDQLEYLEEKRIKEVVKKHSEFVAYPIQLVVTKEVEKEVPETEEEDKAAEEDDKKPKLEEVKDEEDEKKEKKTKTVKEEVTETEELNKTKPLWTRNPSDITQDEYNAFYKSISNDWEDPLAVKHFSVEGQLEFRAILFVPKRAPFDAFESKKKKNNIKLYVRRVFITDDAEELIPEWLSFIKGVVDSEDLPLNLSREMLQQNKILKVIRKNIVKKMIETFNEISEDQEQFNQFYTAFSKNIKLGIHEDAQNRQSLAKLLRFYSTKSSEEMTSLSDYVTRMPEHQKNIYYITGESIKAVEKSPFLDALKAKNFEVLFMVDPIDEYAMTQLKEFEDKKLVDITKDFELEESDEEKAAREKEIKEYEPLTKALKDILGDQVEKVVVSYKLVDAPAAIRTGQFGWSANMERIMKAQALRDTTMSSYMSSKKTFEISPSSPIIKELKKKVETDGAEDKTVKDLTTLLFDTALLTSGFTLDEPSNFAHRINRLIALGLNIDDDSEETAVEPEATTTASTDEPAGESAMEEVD

Melanocortin receptor 4 = Melanocortin receptor 4 (Homo sapiens, UniProt P32245); format: functional, cell-based;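 also: Cell-based assay with luminescence read-out, confirmatory dose-response testing for agonist activity of biased ligands at MC4R; human U2OS cells with tagged receptor and beta-arrestin; potency of agonists that increase receptor coupling to beta-arrestin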
[14] = molecular target: Hepatocyte nuclear factor 4-alpha (Homo sapiens, UniProt P41235); format: functional, cell-based;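 also: biochemical luminescence-based dose-response counterscreen measuring inhibition of HNF4 dimerization, run alongside a screen for blockers of ABHD5–perilipin-5 interaction; split luciferase complementation of HNF4 fusion proteins in cell lysate measuring dimerization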
Chain of Hepatocyte nuclear factor 4-alpha (P41235 whole entry, the tested form may be a part): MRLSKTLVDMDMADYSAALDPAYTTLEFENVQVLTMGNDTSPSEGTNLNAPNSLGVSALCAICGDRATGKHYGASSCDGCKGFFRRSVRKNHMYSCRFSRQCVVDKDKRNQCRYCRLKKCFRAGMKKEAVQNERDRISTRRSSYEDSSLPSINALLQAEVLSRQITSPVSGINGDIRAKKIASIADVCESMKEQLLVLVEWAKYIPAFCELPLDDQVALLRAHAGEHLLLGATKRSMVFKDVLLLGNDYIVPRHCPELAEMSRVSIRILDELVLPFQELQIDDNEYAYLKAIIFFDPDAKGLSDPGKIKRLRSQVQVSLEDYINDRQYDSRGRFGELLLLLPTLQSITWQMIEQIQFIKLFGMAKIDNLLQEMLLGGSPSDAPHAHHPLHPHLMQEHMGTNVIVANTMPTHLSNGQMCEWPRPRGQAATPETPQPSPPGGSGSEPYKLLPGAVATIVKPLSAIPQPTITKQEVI

[15] = molecular target: Glucose-6-phosphate 1-dehydrogenase (Homo sapiens, UniProt P11413); experiment: inhibition of Homo sapiens G6PD, dose series – biochemical, fluorescence, selectivity assay for P. falciparum G6PD inhibitor project, dose response (AID 504792); format: functional
Chain of Glucose-6-phosphate 1-dehydrogenase (P11413 whole entry): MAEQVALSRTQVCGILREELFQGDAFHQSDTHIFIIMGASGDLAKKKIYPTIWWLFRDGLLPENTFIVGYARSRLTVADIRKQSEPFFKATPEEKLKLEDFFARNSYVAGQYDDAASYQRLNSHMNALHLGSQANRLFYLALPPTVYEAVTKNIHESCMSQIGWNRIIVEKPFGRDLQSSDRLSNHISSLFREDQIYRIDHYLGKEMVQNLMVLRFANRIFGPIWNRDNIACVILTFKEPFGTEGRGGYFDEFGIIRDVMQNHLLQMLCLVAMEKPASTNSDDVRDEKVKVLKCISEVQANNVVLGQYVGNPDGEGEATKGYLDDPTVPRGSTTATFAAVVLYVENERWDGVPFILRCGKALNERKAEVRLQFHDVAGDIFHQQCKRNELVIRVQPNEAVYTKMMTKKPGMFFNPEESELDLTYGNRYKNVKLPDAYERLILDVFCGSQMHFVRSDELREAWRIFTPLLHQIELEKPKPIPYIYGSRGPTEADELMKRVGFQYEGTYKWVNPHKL

[16] = molecular target: T6, Short transient receptor potential channel 4 (Mus musculus, UniProt Q9QUQ5); experiment: calcium entry via TRPC4 opening agents – cell-based, HEK293 TRPC4/mu-opioid, Fluo-4 calcium, dose response (AID 434937); format: functional
T6 sequence (Q9QUQ5 whole entry): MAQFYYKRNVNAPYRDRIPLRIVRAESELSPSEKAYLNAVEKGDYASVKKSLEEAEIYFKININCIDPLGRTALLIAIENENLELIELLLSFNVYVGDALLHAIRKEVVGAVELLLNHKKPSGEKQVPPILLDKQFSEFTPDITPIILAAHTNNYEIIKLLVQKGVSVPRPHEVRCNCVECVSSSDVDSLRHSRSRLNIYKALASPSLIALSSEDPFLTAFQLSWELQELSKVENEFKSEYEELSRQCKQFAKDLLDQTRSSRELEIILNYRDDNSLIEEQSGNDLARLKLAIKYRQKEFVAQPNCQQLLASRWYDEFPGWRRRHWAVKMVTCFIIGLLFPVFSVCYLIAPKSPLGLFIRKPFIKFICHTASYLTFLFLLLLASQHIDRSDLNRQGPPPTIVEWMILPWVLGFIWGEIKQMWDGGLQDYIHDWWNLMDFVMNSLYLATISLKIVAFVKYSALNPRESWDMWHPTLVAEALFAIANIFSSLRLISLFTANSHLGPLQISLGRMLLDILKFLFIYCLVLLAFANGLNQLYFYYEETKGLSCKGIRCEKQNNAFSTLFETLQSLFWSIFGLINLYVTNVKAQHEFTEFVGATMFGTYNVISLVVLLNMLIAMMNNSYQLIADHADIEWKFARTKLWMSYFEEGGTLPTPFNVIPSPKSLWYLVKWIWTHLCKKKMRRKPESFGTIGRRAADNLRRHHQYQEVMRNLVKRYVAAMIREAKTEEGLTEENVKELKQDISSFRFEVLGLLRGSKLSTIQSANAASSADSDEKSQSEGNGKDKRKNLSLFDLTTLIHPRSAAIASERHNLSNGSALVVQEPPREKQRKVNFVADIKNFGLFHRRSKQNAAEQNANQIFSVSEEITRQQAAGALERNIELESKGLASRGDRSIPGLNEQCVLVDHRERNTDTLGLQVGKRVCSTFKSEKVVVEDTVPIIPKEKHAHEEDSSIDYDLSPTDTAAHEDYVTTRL

[17] = molecular target: Delta-type opioid receptor (Homo sapiens, UniProt P41143); experiment: Counterscreen for agonists of heterodimerization of the mu 1 (OPRM1) and delta 1 (OPRD1) opioid receptors: Luminescence-based cell-based high throughput dose response assay to identify agonists of OPRD1 homodimerization. [Related pubchem assays (depositor defined):AID504326, AID504355, AID504692, AID504904, AID504905]; format: functional
Chain of Delta-type opioid receptor (P41143 whole entry): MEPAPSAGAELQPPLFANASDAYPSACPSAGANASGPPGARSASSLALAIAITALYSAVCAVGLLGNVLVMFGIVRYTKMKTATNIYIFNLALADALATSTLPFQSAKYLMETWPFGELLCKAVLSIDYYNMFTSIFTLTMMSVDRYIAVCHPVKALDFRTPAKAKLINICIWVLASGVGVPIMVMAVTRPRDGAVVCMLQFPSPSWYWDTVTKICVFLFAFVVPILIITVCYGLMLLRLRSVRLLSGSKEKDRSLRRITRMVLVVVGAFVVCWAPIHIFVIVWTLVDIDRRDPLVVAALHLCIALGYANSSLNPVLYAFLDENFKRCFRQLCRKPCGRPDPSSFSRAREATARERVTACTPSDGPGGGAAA

Mu-type opioid receptor = Mu-type opioid receptor (Homo sapiens, UniProt P35372); experiment: Counterscreen for agonists of heterodimerization of the mu 1 (OPRM1) and delta 1 (OPRD1) opioid receptors: Luminescence-based cell-based high throughput dose response assay to identify agonists of OPRM1 homodimerization.; format: functional;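 also: U2OS cells expressing OPRM1 and beta-arrestin as split beta-galactosidase partners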
Chain of Mu-type opioid receptor (P35372 whole entry): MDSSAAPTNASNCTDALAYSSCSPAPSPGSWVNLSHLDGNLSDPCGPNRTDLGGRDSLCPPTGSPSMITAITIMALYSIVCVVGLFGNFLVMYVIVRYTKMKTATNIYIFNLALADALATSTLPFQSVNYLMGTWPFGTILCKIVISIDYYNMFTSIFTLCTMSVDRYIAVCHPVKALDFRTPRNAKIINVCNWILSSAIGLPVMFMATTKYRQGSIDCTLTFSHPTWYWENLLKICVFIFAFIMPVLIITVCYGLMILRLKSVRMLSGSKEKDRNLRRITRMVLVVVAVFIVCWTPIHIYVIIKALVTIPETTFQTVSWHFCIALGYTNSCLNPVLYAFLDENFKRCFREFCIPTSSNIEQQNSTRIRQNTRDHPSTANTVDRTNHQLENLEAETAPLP

[18] = molecular target: 5-hydroxytryptamine receptor 5A (Homo sapiens, UniProt P47898); experiment: Counterscreen for agonists of OPRM1-OPRD1 heterodimerization: luminescence-based cell-based high throughput dose response assay to identify agonists of 5-hydroxytryptamine (serotonin) 5A receptor (HTR5A). [Related pubchem assays (depositor defined):AID504326, AID504355, AID504692, AID504904, AID504905]; format: functional
Chain of 5-hydroxytryptamine receptor 5A (P47898 whole entry): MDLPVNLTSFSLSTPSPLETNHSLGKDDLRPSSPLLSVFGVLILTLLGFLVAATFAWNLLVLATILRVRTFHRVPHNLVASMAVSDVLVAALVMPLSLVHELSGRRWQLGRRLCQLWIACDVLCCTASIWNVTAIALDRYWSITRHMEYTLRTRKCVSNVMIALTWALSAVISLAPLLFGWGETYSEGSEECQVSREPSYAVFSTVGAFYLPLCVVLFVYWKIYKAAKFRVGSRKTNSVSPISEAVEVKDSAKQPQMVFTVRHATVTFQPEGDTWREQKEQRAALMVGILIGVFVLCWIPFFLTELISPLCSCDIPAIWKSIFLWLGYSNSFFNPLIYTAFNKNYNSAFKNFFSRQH

Chain of Beta-galactosidase (Q8VNN2 whole entry): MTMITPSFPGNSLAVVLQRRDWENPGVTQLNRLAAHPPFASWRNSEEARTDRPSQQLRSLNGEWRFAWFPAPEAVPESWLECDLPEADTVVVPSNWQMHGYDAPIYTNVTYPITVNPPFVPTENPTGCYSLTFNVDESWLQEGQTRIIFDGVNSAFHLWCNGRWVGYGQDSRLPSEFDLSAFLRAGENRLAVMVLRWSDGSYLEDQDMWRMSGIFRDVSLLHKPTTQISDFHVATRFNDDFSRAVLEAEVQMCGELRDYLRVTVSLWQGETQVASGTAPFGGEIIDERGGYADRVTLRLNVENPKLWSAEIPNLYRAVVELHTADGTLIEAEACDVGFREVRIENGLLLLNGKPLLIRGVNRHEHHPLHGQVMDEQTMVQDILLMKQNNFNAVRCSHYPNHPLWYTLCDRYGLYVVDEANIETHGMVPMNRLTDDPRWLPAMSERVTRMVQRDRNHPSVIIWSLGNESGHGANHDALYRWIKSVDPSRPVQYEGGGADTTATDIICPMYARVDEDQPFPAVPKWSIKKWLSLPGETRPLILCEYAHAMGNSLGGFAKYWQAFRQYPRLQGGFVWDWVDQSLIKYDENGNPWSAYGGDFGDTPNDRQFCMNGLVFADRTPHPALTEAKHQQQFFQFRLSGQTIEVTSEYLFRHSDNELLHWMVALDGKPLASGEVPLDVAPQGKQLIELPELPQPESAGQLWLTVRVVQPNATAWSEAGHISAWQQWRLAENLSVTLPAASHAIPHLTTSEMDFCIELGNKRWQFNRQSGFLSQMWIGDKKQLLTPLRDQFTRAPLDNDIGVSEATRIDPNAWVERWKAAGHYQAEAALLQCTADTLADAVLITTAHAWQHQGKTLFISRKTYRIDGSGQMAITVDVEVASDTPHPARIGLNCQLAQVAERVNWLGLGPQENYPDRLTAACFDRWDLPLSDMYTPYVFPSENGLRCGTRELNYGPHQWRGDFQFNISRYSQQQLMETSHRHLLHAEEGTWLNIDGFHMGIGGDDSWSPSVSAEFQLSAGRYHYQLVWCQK

CCN(CC)c1ccc(C(=O)NC(=S)Nc2cc(S(=O)(=O)N3CCOCC3)ccc2-n2cncn2)cc1
EC50 (Beta-galactosidase): > 40 µM (inactive) | IC50 [1]: > 40 µM (not active) | IC50 [2]: 9.89 µM (not active)

O=C1CC(c2ccc(O)c(O)c2)Oc2c1ccc(O)c2O (stereo unspecified)
IC50 (Large T antigen): 1.91 µM (active) | IC50 [3]: 2.99 µM (active) | IC50 [4]: 14.8 µM (active) | IC50 [5]: > 100 µM (inactive) | IC50 [6]: 24.8 µM (active)

Cc1ccc(C(=O)c2coc3c2C(=O)C(=O)c2ccccc2-3)cc1
EC50 [7]: 27.9 µM (active) | EC50 [8]: 0.983 µM (active) | EC50 [9]: 3.78 µM (active) | IC50 [10]: > 50 µM (not active) | AC50 [11]: 3.84 µM (active) | EC50 [12]: 9.27 µM (active) | IC50 (Genome polyprotein): 55 µM (active) | EC50 [13]: 1.21 µM (active) | EC50 (Melanocortin receptor 4): > 89.2 µM (inactive) | IC50 [14]: 3.8 µM (active)

Cc1ccc(/C=C/C(=O)N2CCN(S(=O)(=O)c3ccc(C)c(C)c3)CC2)o1
IC50 [15]: > 80 µM (inactive)

CN(C)C(CN=C(S)Nc1ccccc1Cl)c1cccnc1 (stereo unspecified)
EC50 [16]: 0.0333 µM (active) | EC50 [17]: 26.9 µM (inactive) | EC50 (Mu-type opioid receptor): 3.64 µM (active) | EC50 [18]: > 92.5 µM (inactive)

CCOC(=O)C1(c2ccccc2)CCN(CCC(=O)Nc2ccc(F)cc2)CC1
EC50 [17]: > 92.5 µM (inactive) | EC50 (Mu-type opioid receptor): > 92.5 µM (inactive) | EC50 [18]: > 92.5 µM (inactive)
